Patent US20150320772A1, “USE OF ACETYLSALICYLIC ACID TO PREVENT AND/OR TREAT DIABETIC WOUNDS” (LABORATOIRES URGO, priority 2012, published 2015)

Tests used:
[1] = system: human peripheral blood-derived monocytes differentiated into macrophages; test: Viability of macrophages in vitro in the presence of acetylsalicylic acid (propidium iodide, flow cytometry); details: 72 h incubation
Procedure: Moreover, cell viability tests are carried out on macrophages for various concentrations of acetylsalicylic acid (FIG. 6).
This method of analysis comprises the use of human peripheral blood-derived monocytes placed in culture in RPMI medium, to which is added M-CSF at 10 ng/ml, for 24 hours in order to differentiate them into macrophages. Acetylsalicylic acid is added to the culture medium in a final concentration of 1000 μM or 5000 μM.
Cell mortality is analyzed, after 72 hours of incubation, by flow cytometry by measuring the cytoplasmic incorporation of propidium iodide.
The aim of such a cell viability test carried out in vitro is to verify the harmfulness of the dose administered to the cells found in the wound, and preferably in the present case to macrophages, which are considered to be a type of effector cell in the healing of the lesion being studied.

diabetic mice (db/db) = test: Kinetics of wound closure in diabetic mice (db/db) treated topically with acetylsalicylic acid; assay type: in vivo; details: for wound closure (time to closure): from D3 post-lesion, NaCl control diabetic mice 26 days
Excerpt: These animals are characterized by hyperglycemia, insulin resistance and hypertriglyceridemia, which makes these mice the first choice as models for diabetes of genetic origin. The mice of the “control” group for the db/db mice are heterozygous db/+mice.
(§1) The mouse is anesthetized by means of isoflurane (halogenated anesthetic gas). The dorsal part and the flanks of the mouse are shaved and disinfected and a circular excision of close to 1 cm^2 is made. The connective tissue at the interface of the muscle tissue is removed without damaging the muscle fascia. The skin is totally excised as far as the panniculus carnosus.
The wound thus created is protected by a device such as described in the patent applications filed by Laboratoires Urgo, FR 11 62295 and FR 11 62344, which enables both protection of the wound and observation and evaluation of the healing kinetics, and enables exudate to be collected.
The wound healing process is observed from 0 to 30 days post-lesion. Between 3 and 5 very high resolution standardized digital photographs are taken for each animal. The percentage wound closure is based on changes in surface area calculated for the same injury on the same mouse and for the indicated time points. Thus, the mean calculated for wound healing (as a percentage) over the 3 mice in a group is obtained independently and the statistics are calculated from 3 groups of 3 independent experiments.
as §1, with “As already described above, the mouse” for “The mouse”, “of isoflurane.” for “of isoflurane (halogenated anesthetic gas).”
In the meantime, the reference solution of acetylsalicylic acid is prepared at 5 mM. This solution will be used to prepare the solutions with concentrations of 100 μM, 200 μM, 300 μM, 1 mM, 2 mM, 2.9 mM, 4.8 mM and 5 mM.
Solutions with concentrations of 100 μM, 200 μM, 300 μM, 1 mM, 2 mM, 2.9 mM, 4.8 mM and 5 mM of acetylsalicylic acid are tested.
A volume of between 50 and 500 μl is taken off from each solution and placed in contact with the wound via a device such as described through the patent applications filed by Laboratoires Urgo, FR 11 62295 and FR 11 62344.
It is noteworthy that this placing of a predefined concentration of acetylsalicylic acid in contact with the site of healing is carried out starting from the third day post-lesion. Indeed, it is in this period that the delay in healing appears in the diabetic mice, compared to the “control” mice (FIGS. 1A and 1B). Moreover, in the context of treating diabetic patients, the treated wounds will already be formed and will be arrested in the inflammatory phase. No chronic wounds, and more particularly diabetic wounds, are treated as soon as they appear. Moreover, the inflammatory phase is an indispensable phase in healing, since it enables the damaged area to be cleaned and deterged by virtue of the infiltration of inflammatory cells such as polymorphonuclear neutrophils. It is therefore necessary to retain inflammation to initiate effective healing, and thus to not entirely block this phase. This is why treatment with acetylsalicylic acid is only proposed starting from D3 post-lesion.

diabetic mice (HFD) = test: Kinetics of cell infiltration into the wound (exudate) of diabetic mice (HFD) treated with acetylsalicylic acid; assay type: in vivo; details: 1000 μM solution, D7 post-lesion, versus control diabetic mice
Excerpt: FIG. 7: Kinetics of cell infiltration into the wound of “control” mice and diabetic mice (HFD) treated with acetylsalicylic acid.
HFD mice are murine models for induced diabetes, produced with C57BL/6 mice of 8 weeks of age. These mice follow a high calorie (high-fat) diet for 16 weeks. […] Unlike db/db mice, the diabetic state in these animals is not of genetic origin. The mice of the “control” group for the HFD mice are mice on a standard diet, also known by the abbreviation “NC”.
The cells from the exudate are recovered from D1 post-lesion until no more exudate is secreted by the wound. In order to determine the kinetics of polymorphonuclear neutrophil infiltration, the cells from the exudate from the lesion are characterized by flow cytometry by immunolabeling relating to the membrane receptors Ly6G, 7/4 (for the polymorphonuclear cells) and F4/80 (for the macrophages). A total of 10 000 events is analyzed for each sample. All the results are given in the form of percentage expression.
FIG. 7 describes the kinetics of cell infiltration carried out on “control” diabetic mice or on those to which has been applied a solution of 1000 μM of acetylsalicylic acid.

CC(=O)Oc1ccccc1C(=O)O [acetylsalicylic acid]
cell toxicity ([1]; 1000 μM): no cell toxicity | reduction of cell viability ([1]; 5000 μM): 20% | effect on the healing kinetics compared with control diabetic mice (diabetic mice (db/db); 100 μM solution, topical): No effect whatsoever | wound closure (time to closure) (diabetic mice (db/db); 300 μM solution, topical): around twenty | resolution of inflammation compared to control diabetic mice (diabetic mice (db/db); 300 μM, 1000 μM and 2000 μM solutions, topical, early phase D3 to D7 post-lesion): very clear acceleration of resolution of inflammation | wound closure (time to closure) (diabetic mice (db/db); 1000 μM solution, topical): around twenty | effect on the healing kinetics compared with control diabetic mice (diabetic mice (db/db); 5000 μM solution, topical): No effect whatsoever | speed of wound closure (overall conclusion) (diabetic mice (db/db); concentration of between 100 μM and 4800 μM, administered from D3 post-lesion): increased speed of wound closure | number of cells infiltrating the site of the lesion (diabetic mice (HFD)): significant reduction
